The values below come from US9540384B2, “Pyrrolidino heterocycles” (Hoffmann-La Roche Inc., priority 2012, dated 2017).

In the assay the target is human PDE10A full length (Homo sapiens (Human), UniProt Q9Y233). The experiment in a line: human PDE10A full length Scintillation Proximity Assay (SPA). It is filed as biochemical. Conditions: PDE10A enzyme, 50 nM cGMP + 50 nM [3H]-cGMP, 20 minutes at room temperature. The procedure:
The following test was carried out in order to determine the activity of the compounds of the present invention. PDE10 activity of the compounds of the present invention was determined using a Scintillation Proximity Assay (SPA)-based method similar to the one previously described (Fawcett, L. et al., Proc Natl Acad Sci USA (2000) 97(7):3702-3707).
The human PDE10A full length assay was performed in 96-well micro titer plates. The reaction mixture of 50 μl contained 20 mM HEPES pH=7.5/10 mM MgCl2/0.05 mg/ml BSA (Sigma cat. #A-7906), 50 nM cGMP (Sigma, cat. #G6129) and 50 nM [3H]-cGMP (GE Healthcare, cat. #TRK392 S.A. 13.2 Ci/mmol), 3.75 ng/well PDE10A enzyme (Enzo Life Science, Lausen, Switzerland cat #SE-534) with or without a specific test compound. A range of concentrations of the potential inhibitor was used to generate data for calculating the concentration of inhibitor resulting in 50% of the effect (e.g. IC50, the concentration of the competitor inhibiting PDE10A activity by 50%). Non-specific activity was tested without the enzyme. The reaction was initiated by the addition of the substrate solution (cGMP and [3H]-cGMP) and allowed to progress for 20 minutes at room temperature. The reaction was terminated by adding 25 μl of YSi-SPA scintillation beads (GE Healthcare, cat. #RPNQ0150) in 18 mM zinc sulphate solution (stop reagent). After 1 h under shaking, the plate was centrifuged one minute at 170 g to allow beads to settle. Afterwards, radioactive counts were measured on a Perkin Elmer TopCount Scintillation plate reader.

Chain of human PDE10A full length (Q9Y233 other isoform, or with tags, fused parts or gaps): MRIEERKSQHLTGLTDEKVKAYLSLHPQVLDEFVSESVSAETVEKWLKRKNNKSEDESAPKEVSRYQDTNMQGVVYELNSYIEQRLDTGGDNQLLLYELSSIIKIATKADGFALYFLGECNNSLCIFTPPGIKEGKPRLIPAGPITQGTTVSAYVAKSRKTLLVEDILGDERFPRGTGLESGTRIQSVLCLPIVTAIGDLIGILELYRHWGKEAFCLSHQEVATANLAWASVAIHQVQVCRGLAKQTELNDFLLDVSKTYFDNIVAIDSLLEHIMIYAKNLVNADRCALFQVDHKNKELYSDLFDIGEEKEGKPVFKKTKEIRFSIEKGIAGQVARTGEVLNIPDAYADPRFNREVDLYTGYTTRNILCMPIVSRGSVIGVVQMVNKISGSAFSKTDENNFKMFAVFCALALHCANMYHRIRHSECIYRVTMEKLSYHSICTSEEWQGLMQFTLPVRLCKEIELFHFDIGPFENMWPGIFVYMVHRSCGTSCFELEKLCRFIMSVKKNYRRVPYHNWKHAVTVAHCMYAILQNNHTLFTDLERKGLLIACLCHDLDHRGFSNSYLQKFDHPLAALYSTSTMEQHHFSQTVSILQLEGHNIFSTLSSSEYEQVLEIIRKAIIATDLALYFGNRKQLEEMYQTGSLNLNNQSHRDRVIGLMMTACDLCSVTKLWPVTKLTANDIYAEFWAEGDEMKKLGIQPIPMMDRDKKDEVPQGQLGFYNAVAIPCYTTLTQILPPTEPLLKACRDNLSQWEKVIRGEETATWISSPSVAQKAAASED

Take `CN(C)c1nc(CCc2cccc(N3CCC(O)C3)n2)nc2ccccc12` (stereo not drawn) [Example 32, 1-(6-(2-(4-(Dimethylamino)quinazolin-2-yl)ethyl)pyridin-2-yl)-pyrrolidin-3-ol]: the IC50 worked out at 480 nM.

For the molecule `CN(C)c1nc(CCc2cccc(N3CCC(CO)C3)n2)nc2ccc(Cl)cc12` (stereo not drawn) [Example 33, (1-(6-(2-(6-Chloro-4-(dimethylamino)quinazolin-2-yl)ethyl)pyridin-2-yl)pyrrolidin-3-yl)methanol], the IC50 is 150 nM.

Consider `CN(C)c1nc(CCc2cccc(N3CCC(CO)C3)n2)nc2ccccc12` (stereo not drawn) [Example 34, (1-(6-(2-(4-(Dimethylamino)quinazolin-2-yl)ethyl)pyridin-2-yl)pyrrolidin-3-yl)methanol], for which the IC50 was found to be 1630 nM. In the case of `CC1CCCN1c1cccc(/C=C/c2nc(N(C)C)c3cc(Cl)ccc3n2)n1` (stereo not drawn) [Example 35, (E)-6-Chloro-N,N-dimethyl-2-(2-(6-(2-methylpyrrolidin-1-yl)pyridin-2-yl)vinyl)quinazolin-4-amine] it was 27 nM; in that of `CN(C)c1nc(/C=C/c2cccc(N3CCCC3=O)n2)nc2ccc(Cl)cc12` [Example 36, (E)-1-(6-(2-(6-chloro-4-(dimethylamino)quinazolin-2-yl)vinyl)pyridin-2-yl)pyrrolidin-2-one], 820 nM; in that of `Cc1cccc2c(=O)[nH]c(CCc3cccc(N4CCCC4)n3)nc12` [Example 37, 8-methyl-2-(2-(6-(pyrrolidin-1-yl)pyridin-2-yl)ethyl)quinazolin-4(3H)-one], 3270 nM. In the case of `CC1CCCN1c1cccc(CCc2nc(N(C)C)c3cc(Cl)ccc3n2)n1` (stereo not drawn) [Example 38, 6-Chloro-N,N-dimethyl-2-(2-(6-(2-methylpyrrolidin-1-yl)pyridin-2-yl)ethyl)quinazolin-4-amine] it was 81 nM.

On to `CN(C)c1nc(/C=C/c2cccc(N(C)CCO)n2)nc2ccc(Cl)cc12` [Example 39, (E)-2-((6-(2-(6-Chloro-4-(dimethylamino)quinazolin-2-yl)vinyl)pyridin-2-yl)(methyl)amino)ethanol], for which the IC50 was determined as 240 nM. Under `CN(C)c1nc(CCc2cccc(N(C)CCO)n2)nc2ccc(Cl)cc12` [Example 40, 2-((6-(2-(6-Chloro-4-(dimethylamino)quinazolin-2-yl)ethyl)pyridin-2-yl)(methyl)amino)ethanol] stands 2160 nM; under `CN(C)c1cccc(/C=C/c2nc(N(C)C)c3cc(Cl)ccc3n2)n1` [Example 41, (E)-6-Chloro-2-(2-(6-(dimethylamino)pyridin-2-yl)vinyl)-N,N-dimethylquinazolin-4-amine], 750 nM; under `CN(C)c1cccc(CCc2nc(N(C)C)c3cc(Cl)ccc3n2)n1` [Example 42, 6-Chloro-2-(2-(6-(dimethylamino)pyridin-2-yl)ethyl)-N,N-dimethyl-quinazolin-4-amine], 1680 nM. In the case of `Cc1ncc(C)n2nc(/C=C/c3cccc(N4CCCC4)n3)nc12` [Example 43, (E)-5,8-Dimethyl-2-(2-(6-(pyrrolidin-1-yl)pyridin-2-yl)vinyl)[1,2,4]triazolo[1,5-a]pyrazine] it was 12 nM; in that of `Cc1nc2ccc(OCc3cccc(N4CCCC4)n3)nn2c1C` [Example 44, 2,3-Dimethyl-6-((6-(pyrrolidin-1-yl)pyridin-2-yl)methoxy)imidazo[1,2-b]pyridazine], 160 nM; in that of `Cc1ncc(C)n2nc(CCc3cccc(N4CCCC4)n3)nc12` [Example 45, 5,8-Dimethyl-2-(2-(6-(pyrrolidin-1-yl)pyridin-2-yl)ethyl)-[1,2,4]triazolo-[1,5-a]pyrazine], 4.5 nM. Consider `Cc1cc(C)n2nc(CCc3cncc(N4CCCC4)n3)nc2n1` [Example 46, 5,7-Dimethyl-2-(2-(6-(pyrrolidin-1-yl)pyrazin-2-yl)ethyl)-[1,2,4]triazolo-[1,5-a]pyrimidine], for which the IC50 came to 300 nM. Under `Cc1cc(C)n2nc(/C=C/c3cccc(N4CCCC4)n3)nc2n1` [Example 47, (E)-5,7-Dimethyl-2-(2-(6-(pyrrolidin-1-yl)pyridin-2-yl)vinyl)[1,2,4]triazolo[1,5-a]pyrimidine] stands 31 nM; under `Cc1cc(C)n2nc(CCc3cccc(N4CCCC4)n3)nc2n1` [Example 48, 5,7-Dimethyl-2-[2-(6-pyrrolidin-1-yl-pyridin-2-yl)-ethyl]-[1,2,4]triazolo[1,5-a]pyrimidine], 110 nM. In the case of `Cc1nc2ccc(CCc3cccc(N4CCCC4)n3)nn2c1C` [Example 49, 2,3-Dmethyl-6-(2-(6-(pyrrolidin-1-yl)pyridin-2-yl)ethyl)imidazo[1,2-b]pyridazine], the IC50 worked out at 630 nM.

In the case of `Cc1ncc(C)n2nc(/C=C/c3cncc(N4CCCC4)n3)nc12` [Example 50, (E)-5,8-Dim ethyl-2-(2-(6-(pyrrolidin-1-yl)pyrazin-2-yl)vinyl)[1,2,4]triazolo[1,5-a]pyrazine], the IC50 amounted to 18 nM. In the case of `Cc1ncc(C)n2nc(CCc3cncc(N4CCCC4)n3)nc12` [Example 51, 5,8-Dimethyl-2-(2-(6-(pyrrolidin-1-yl)pyrazin-2-yl)ethyl)-[1,2,4]triazolo[1,5-a]pyrazine] it was 140 nM; in that of `CCc1nc2ccc(OCc3cccc(N4CCCC4)n3)nn2c1C` [Example 52, 2-Ethyl-3-methyl-6-((6-(pyrrolidin-1-yl)pyridin-2-yl)methoxy)imidazo[1,2-b]pyridazine], 540 nM. In the case of `Cc1nn2ccc(OCc3cccc(N4CCCC4)n3)nc2c1C` [Example 53, 2,3-Dimethyl-5-((6-(pyrrolidin-1-yl)pyridin-2-yl)methoxy)pyrazolo[1,5-a]pyrimidine] it was 69 nM. Take `Cc1cn2nc(OCc3cccc(N4CCCC4)n3)ccc2n1` [Example 54, 2-Methyl-6-((6-(pyrrolidin-1-yl)pyridin-2-yl)methoxy)imidazo[1,2-b]pyridazine]: the IC50 came out at 260 nM. In the case of `c1cc(COc2ccc3nc(C4CC4)cn3n2)nc(N2CCCC2)c1` [Example 55, 2-Cyclopropyl-6-((6-(pyrrolidin-1-yl)pyridin-2-yl)methoxy)imidazo[1,2-b]pyridazine] it was 600 nM. Under `Cc1c(C(N)=O)nc2ccc(OCc3cccc(N4CCCC4)n3)nn12` [Example 56, 3-Methyl-6-((6-(pyrrolidin-1-yl)pyridin-2-yl)methoxy)imidazo[1,2-b]pyridazine-2-carboxamide] stands 1050 nM; under `Cc1c(C(F)(F)F)nc2ccc(NCc3cccc(N4CCCC4)n3)nn12` [Example 57, 3-Methyl-N-((6-(pyrrolidin-1-yl)pyridin-2-yl)methyl)-2-(trifluoromethyl)imidazo[1,2-b]pyridazin-6-amine], 200 nM; under `Cc1nn2ccc(CCc3cccc(N4CCCC4)n3)nc2c1C` [Example 58, 2,3-Dimethyl-5-(2-(6-(pyrrolidin-1-yl)pyridin-2-yl)ethyl)pyrazolo[1,5-a]pyrimidine], 300 nM.
